Reference: the NIST ThermoML archive (doi:10.1021/je900676b)
Numbers after ± are expanded uncertainties.

Test: heat capacity at constant pressure per volume
Conditions: 10000 kPa, Liquid, Tian-Calvet differential microcalorimeter

CCCCCCCCn1cc[n+](C)c1.O=S(=O)([N-]S(=O)(=O)C(F)(F)F)C(F)(F)F
Conditions	heat capacity [J/K/m3]
325 K	1950000 ± 12000
337.36 K	1964000 ± 12000
349.71 K	1973000 ± 12000
362.07 K	1984000 ± 12000
374.43 K	1993000 ± 12000
386.8 K	2004000 ± 12000
399.16 K	2012000 ± 12000
411.52 K	2018000 ± 12000
423.88 K	2029000 ± 12000
436.25 K	2036000 ± 12000
448.61 K	2049000 ± 12000
460.97 K	2049000 ± 12000
473.33 K	2053000 ± 12000
485.69 K	2056000 ± 12000
498.06 K	2068000 ± 12000
510.42 K	2069000 ± 12000
522.79 K	2084000 ± 13000
535.15 K	2082000 ± 13000
547.51 K	2099000 ± 13000
554.94 K	2098000 ± 13000

CCCCCC[n+]1ccn(C)c1.O=S(=O)([N-]S(=O)(=O)C(F)(F)F)C(F)(F)F
Conditions	heat capacity [J/K/m3]
325.02 K	1953000 ± 12000
337.38 K	1966000 ± 12000
349.75 K	1972000 ± 12000
362.12 K	1982000 ± 12000
374.48 K	1989000 ± 12000
386.84 K	2004000 ± 12000
399.19 K	2009000 ± 12000
411.56 K	2021000 ± 12000
423.91 K	2034000 ± 12000
436.27 K	2038000 ± 12000
448.63 K	2053000 ± 12000
460.99 K	2050000 ± 12000
473.35 K	2051000 ± 12000
485.72 K	2055000 ± 12000
498.09 K	2067000 ± 12000
510.46 K	2066000 ± 12000
522.84 K	2081000 ± 12000
535.2 K	2079000 ± 12000
547.56 K	2096000 ± 13000
554.94 K	2121000 ± 13000
